Values quoted from earlier work in US20180228811A1, “GDNF INDUCTION FOR THE TREATMENT OF RETINAL DISORDERS” (THE SCHEPENS EYE RESEARCH INSTITUTE, INC., priority 2014, published 2018).

System: photoreceptors
Conditions: rd10 mouse, systemic treatment (Mitton et al. 2014); cited from earlier work

CCCC(CCC)C(=O)O [VPA, Valproic acid]
photoreceptor rescue, result in words: partial photoreceptor rescue
